Measured values: patent US10940150B2, “Thymine derivatives and quinazoline-dione derivatives for the inhibition of HSP27” (TECHNISCHE UNIVERSITAET DRESDEN, priority 2014, dated 2021)

Molecular target: HSP27 (Homo sapiens, UniProt P04792)
Assay: Capillary electrophoresis of heat-denatured citrate synthase protein precipitates
Assay type: biochemical
Conditions: for Efficacy compared with BVDU: 10 μmol/L vs 750 μmol/L BVDU, 43° C. for 70 minutes (Table 3); for Rel. quantity of protein prec. CS: 10 μmol/L, 43° C. for 70 minutes, relative to 750 μmol/L BVDU = 1 (Table 3)
Description: Since the heat-denatured protein aggregates of the citrate synthase from Example 1 are not water-soluble, these can be separated completely from the supernatant by means of centrifugation at room temperature at 16,000×g, 10 min. By using capillary electrophoresis, the compositions of the separated precipitates can be shown and quantified. The relative quantity of protein of precipitated citrate synthase serves as a measure of the efficacy of the test substances.
In each case, 481 nmol/L HSP27 and 1.44 μmol/L citrate synthase in 40 mmol/L HEPES buffer, pH 7.4, were employed. The relative quantity of protein of the precipitated citrate synthase in each case was normalized using a defined quantity of BSA as internal standard. The relative quantity of protein that precipitated when using 750 μmol/L BVDU was set at 1. The other test substances (2 representatives of phenothiazine derivatives of general formula (V), 2 representatives of purine derivatives of formula (I) or (II)) were each employed at a concentration of 10 μmol/L.
Since the heat-denatured protein aggregates of the citrate synthase from Example 2 are not water-soluble, these can be separated completely from the supernatant by means of centrifugation at room temperature at 16,000×g, 10 min. By using capillary electrophoresis, the compositions of the separated precipitates can be shown and quantified. The relative quantity of protein of precipitated citrate synthase serves as a measure of the efficacy of the test substances.
In each case, 481 nM HSP27 and 1.44 μmol/L citrate synthase in 40 mmol/L HEPES buffer, pH 7.4, were employed. The relative quantity of protein of the precipitated citrate synthase in each case was normalized using a defined quantity of BSA as internal standard. The relative quantity of protein that precipitated when using 750 μmol/L BVDU was set at 1. The other test substances (2 representatives of phenothiazine derivatives of general formula (V), 2 representatives of thymine derivatives of formula (I) or (II)) were employed at a concentration of 10 μmol/L in each case.
Otherwise, the experiments were performed as described above: […]

HSP27, sequence (P04792 whole entry): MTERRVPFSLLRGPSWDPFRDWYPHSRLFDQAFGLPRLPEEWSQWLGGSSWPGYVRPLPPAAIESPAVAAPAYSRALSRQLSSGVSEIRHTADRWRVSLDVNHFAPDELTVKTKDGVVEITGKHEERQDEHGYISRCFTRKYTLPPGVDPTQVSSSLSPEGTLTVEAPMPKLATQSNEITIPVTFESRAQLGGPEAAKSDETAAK

Efficacy compared with BVDU	Rel. quantity of protein prec. CS	Compound
60.88 x	0.81	Cc1cn(C2C[C@H](n3cc(-c4cccc(Br)c4)nn3)[C@@H](CO)O2)c(=O)[nH]c1=O (stereo partly drawn) [1-[(4S,5S)-4-[4-(3-Bromophenyl)-1H-1,2,3-triazol-1-yl]-5-(hydroxymethyl)oxolan-2-yl]-5-methyl-1,2,3,4-tetrahydropyrimidine-2,4-dione]
55.89 x	0.75	COc1ccc(-c2cn([C@H]3CC(n4cc(C)c(=O)[nH]c4=O)O[C@@H]3CO)nn2)cc1 (stereo partly drawn) [1-[(4S,5S)-5-(Hydroxymethyl)-4-[4-(4-methoxyphenyl)-1,2,3-triazol-1-yl]oxolan-2-yl]-5-methyl-3H-pyrimidine-2,4-dione]
57.08 x	0.76	CCCCc1cn([C@H]2C[C@H](n3cc(C)c(=O)[nH]c3=O)O[C@@H]2CO)nn1 [3′-(4-Butyl-1H-1,2,3-triazol-1-yl)-3′-deoxythymidine]
52.57 x	0.70	CCCCCc1cn([C@H]2C[C@H](n3cc(C)c(=O)[nH]c3=O)O[C@@H]2CO)nn1 [3′-Deoxy-3′-(4-pentyl-1H-1,2,3-triazol-1-yl)thymidine]
59.07 x	0.79	Cc1cn([C@H]2C[C@H](n3cc(-c4ccccc4)nn3)[C@@H](CO)O2)c(=O)[nH]c1=O [3′-Deoxy-3′-(4-phenyl-1H-1,2,3-triazol-1-yl)thymidine]
55.67 x	0.74	Cc1cn([C@H]2C[C@H](n3cc(CCc4ccccc4)nn3)[C@@H](CO)O2)c(=O)[nH]c1=O [3′-Deoxy-3′-[4-(2-phenylethyl)-1H-1,2,3-triazol-1-yl]-thymidine]
43.30 x	0.58	Cc1cn(CCCCNC(=O)C2c3ccccc3-c3ccccc32)c(=O)[nH]c1=O [N-[4-(5-Methyl-2,4-dioxo-3H-pyrimidin-1-yl)butyl]-9H-fluorene-9-carboxamide]
51.16 x	0.68	Cc1cn(CCCCNC(=O)C2c3ccccc3Oc3ccccc32)c(=O)[nH]c1=O [N-[4-(5-Methyl-2,4-dioxo-3H-pyrimidin-1-yl)butyl]-9H-xanthene-9-carboxamide]
66.15 x	0.88	O=C(Cc1ccc(-c2ccccc2)cc1)NC/C=C\Cn1ccc(=O)[nH]c1=O [N-[(2Z)-4-(2,4-Dioxo-3H-pyrimidin-1-yl)but-2-en-1-yl]-2-(4-phenylphenyl)acetamide]
63.38 x	0.85	O=C(NC/C=C\Cn1ccc(=O)[nH]c1=O)C1c2ccccc2OC2C=CC=CC21 (stereo not drawn) [N-[(2Z)-4-(2,4-Dioxo-3H-pyrimidin-1-yl)but-2-en-1-yl]-9,9a-dihydro-4aH-xanthene-9-carboxamide]
61.19 x	0.82	Cc1cn(C/C=C\CNC(=O)C(c2ccccc2)c2ccccc2)c(=O)[nH]c1=O [N-[(2Z)-4-(5-Methyl-2,4-dioxo-3H-pyrimidin-1-yl)but-2-en-1-yl]-2,2-diphenylacetamide]
60.44 x	0.81	Cc1cn(C/C=C\CNC(=O)Cc2cccc3ccccc23)c(=O)[nH]c1=O [N-[(2Z)-4-(5-Methyl-2,4-dioxo-3H-pyrimidin-1-yl)but-2-en-1-yl]-2-(naphthalen-1-yl)acetamide]
62.51 x	0.83	Cc1cn(C/C=C\CNC(=O)Cc2ccc3ccccc3c2)c(=O)[nH]c1=O [N-[(2Z)-4-(5-Methyl-2,4-dioxo-3H-pyrimidin-1-yl)but-2-en-1-yl]-2-(naphthalen-2-yl)acetamide]
64.31 x	0.86	Cc1cn(C/C=C\CNC(=O)C2c3ccccc3-c3ccccc32)c(=O)[nH]c1=O [N-[(2Z)-4-(5-Methyl-2,4-dioxo-3H-pyrimidin-1-yl)but-2-en-1-yl]-9H-fluorene-9-carboxamide]

Continued, compound first:

Compound	Efficacy compared with BVDU	Rel. quantity of protein prec. CS
Cc1cn(C2C[C@H](n3cc(-c4ccc(Br)cc4)nn3)[C@@H](CO)O2)c(=O)[nH]c1=O (stereo partly drawn) [1-[(4S,5S)-4-[4-(4-Bromophenyl)-1,2,3-triazol-1-yl]-5-(hydroxymethyl)oxolan-2-yl]-5-methyl-3H-pyrimidine-2,4-dione]	48.14 x	0.64
CCCc1cn([C@H]2C[C@H](n3cc(C)c(=O)[nH]c3=O)O[C@@H]2CO)nn1 [3′-Deoxy-3′-(4-propyl-1H-1,2,3-triazol-1-yl)thymidine]	59.59 x	0.79
Cc1cn([C@H]2C[C@H](n3cc(C(C)(C)C)nn3)[C@@H](CO)O2)c(=O)[nH]c1=O [3′-Deoxy-3′-[4-(2-methyl-2-propanyl)-1H-1,2,3-triazol-1-yl]thymidine]	46.01 x	0.61
Cc1cn([C@H]2C[C@H](n3cc(-c4ccccn4)nn3)[C@@H](CO)O2)c(=O)[nH]c1=O [3′-Deoxy-3′-[4-(2-pyridinyl)-1H-1,2,3-triazol-1]-yl]thymidine]	62.86 x	0.84
Cc1cn([C@H]2C[C@H](n3cc(-c4ccc(Cl)c(Cl)c4)nn3)[C@@H](CO)O2)c(=O)[nH]c1=O [3′-Deoxy-3′-[4-(3,4-dichlorophenyl)-1H-1,2,3-triazol-1-yl]-thymidine]	64.21 x	0.86
Cc1cn([C@H]2C[C@H](n3cc(-c4ccc(F)cc4)nn3)[C@@H](CO)O2)c(=O)[nH]c1=O [3′-Deoxy-3′-[4-(4-fluorophenyl)-1H-1,2,3-triazol-1-yl]-thymidine]	49.69 x	0.66
Cc1cn([C@H]2C[C@H](n3cc(-c4ccc(Cl)cc4)nn3)[C@@H](CO)O2)c(=O)[nH]c1=O [3′-[4-(4-Chlorophenyl)-1H-1,2,3-triazol-1-yl]-3′-deoxythymidine]	50.53 x	0.67
Cc1cn([C@H]2C[C@H](n3cc(CC4CCCC4)nn3)[C@@H](CO)O2)c(=O)[nH]c1=O [3′-[4-(Cyclopentylmethyl)-1H-1,2,3-triazol-1-yl]-3′-deoxythymidine]	49.63 x	0.66
Cc1cn(CCCCNC(=O)C(c2ccccc2)c2ccccc2)c(=O)[nH]c1=O [N-[4-(5-Methyl-2,4-dioxo-3H-pyrimidin-1-yl)butyl]-2,2-diphenylacetamide]	58.97 x	0.79
Cc1cn(CCCCNC(=O)Cc2ccc(-c3ccccc3)cc2)c(=O)[nH]c1=O [N-[4-(5-Methyl-2,4-dioxo-3H-pyrimidin-1-yl)butyl]-2-(4-phenylphenyl)acetamide]	50.52 x	0.67
Cc1cn(CCCCNC(=O)Cc2ccc3ccccc3c2)c(=O)[nH]c1=O [N-[4-(5-Methyl-2,4-dioxo-3H-pyrimidin-1-yl)butyl]-2-(naphthalen-2-yl)acetamide]	56.36 x	0.75
O=C(Cc1ccc2ccccc2c1)NC/C=C\Cn1ccc(=O)[nH]c1=O [N-[(2Z)-4-(2,4-Dioxo-3H-pyrimidin-1-yl)but-2-en-1-yl]-2-(naphthalen-2-yl)acetamide]	86.25 x	1.15
Cc1cn(C/C=C\CNC(=O)c2cccc3ccccc23)c(=O)[nH]c1=O [N-[(2Z)-4-(5-Methyl-2,4-dioxo-3H-pyrimidin-1-yl)but-2-en-1-yl]naphthalene-1-carboxamide]	58.73 x	0.78
